US20100160454A1, “ANTIMICROBIAL AGENTS, COMPOSITIONS AND PRODUCTS CONTAINING THE SAME, AND METHODS OF USING THE COMPOSITIONS AND PRODUCTS” (Eastman Chemical Company, priority 2008, published 2010)

Columns and labels:
Assay in all cases: Microbiological challenge testing in BPW broth, graded subculture counts
Assay type in all cases: cell-based
[1] = test system: Proteus vulgaris Wild type
Procedure, shortened: (§1)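 Serial 1:10 dilutions were made in pH 7.2 phosphate buffer and spread-plated onto PCA, and colonies were counted after 48 h or more at 35 °C. In the challenge, BPW–dextrose tubes containing the test material received inoculum at 10^5–10^6 CFU/mL at time zero. Controls without test material served as reference.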

[2] = test system: Bacillus subtilis Wild type
Procedure, shortened: as §1

[3] = test system: Burkholderia cepacia Wild type; conditions: B. cepacia
Procedure, shortened: as §1

[4] = test system: Pseudomonas aeruginosa Wild type; conditions: P. aeruginosa
Procedure, shortened: as §1

[5] = test system: Staphylococcus epidermidis ATCC 12228
Procedure, shortened: as §1

[6] = test system: Aeromonas sp. Wild type
Procedure, shortened: as §1

[7] = test system: Staphylococcus aureus ATCC 25923; conditions: S. aureus
Procedure, shortened: as §1

SMILES: OCC1CCCCC1CO (stereo not drawn) [1,2-CHDM, 1,2-cyclohexanedimethanol]
- P. vulgaris growth grade, 3 day ([1]; 0.5% weight/volume): 4 (1000 to 10,000 colonies countable (thus 10,000 CFU/mL to 100,000 CFU/mL))
- P. vulgaris growth grade, 13 day ([1]; 0.5% weight/volume): 4 (1000 to 10,000 colonies countable (thus 10,000 CFU/mL to 100,000 CFU/mL))
- P. vulgaris growth grade, 30 day ([1]; 0.5% weight/volume): 4 (1000 to 10,000 colonies countable (thus 10,000 CFU/mL to 100,000 CFU/mL))
- P. vulgaris growth grade, 3 day ([1]; 1.25% weight/volume): 2.3
- P. vulgaris growth grade, 13 day ([1]; 1.25% weight/volume): 1 (0 to 51 colonies counted (thus 10 to 510 CFU/mL based on 0.1-mL sample))
- P. vulgaris growth grade, 30 day ([1]; 1.25% weight/volume): 0
- P. vulgaris growth grade, 3 day ([1]; 2.5% weight/volume): 1 (0 to 51 colonies counted (thus 10 to 510 CFU/mL based on 0.1-mL sample))
- P. vulgaris growth grade, 13 day ([1]; 2.5% weight/volume): 0
- P. vulgaris growth grade, 30 day ([1]; 2.5% weight/volume): 0
- P. vulgaris growth grade, 3 day ([1]; 5.0% weight/volume): 0
- P. vulgaris growth grade, 13 day ([1]; 5.0% weight/volume): 0
- P. vulgaris growth grade, 30 day ([1]; 5.0% weight/volume): 0
- B. subtillis growth grade, 3 day ([2]; 0.5% weight/volume): 4 (1000 to 10,000 colonies countable (thus 10,000 CFU/mL to 100,000 CFU/mL))
- B. subtillis growth grade, 14 day ([2]; 0.5% weight/volume): 3 (100 to 1000 colonies (thus 1000 to 10,000 CFU/mL))
- B. subtillis growth grade, 30 day ([2]; 0.5% weight/volume): 4 (1000 to 10,000 colonies countable (thus 10,000 CFU/mL to 100,000 CFU/mL))
- B. subtillis growth grade, 3 day ([2]; 1.25% weight/volume): 2 (52 to 100 colonies counted (thus 520 to 1000 CFU/mL))
- B. subtillis growth grade, 14 day ([2]; 1.25% weight/volume): 1 (0 to 51 colonies counted (thus 10 to 510 CFU/mL based on 0.1-mL sample))
- B. subtillis growth grade, 30 day ([2]; 1.25% weight/volume): 1 (0 to 51 colonies counted (thus 10 to 510 CFU/mL based on 0.1-mL sample))
- B. subtillis growth grade, 3 day ([2]; 2.5% weight/volume): 0
- B. subtillis growth grade, 14 day ([2]; 2.5% weight/volume): 0
- B. subtillis growth grade, 30 day ([2]; 2.5% weight/volume): 0
- B. subtillis growth grade, 3 day ([2]; 5.0% weight/volume): 0
- B. subtillis growth grade, 14 day ([2]; 5.0% weight/volume): 0
- B. subtillis growth grade, 30 day ([2]; 5.0% weight/volume): 0
- Grade ([3]; 0.5% (wt/vol), 3 day): 4 (1000 to 10,000 colonies countable (thus 10,000 CFU/mL to 100,000 CFU/mL))
- Grade ([3]; 0.5% (wt/vol), 14 day): 4 (1000 to 10,000 colonies countable (thus 10,000 CFU/mL to 100,000 CFU/mL))
- Grade ([3]; 0.5% (wt/vol), 30 day): 4 (1000 to 10,000 colonies countable (thus 10,000 CFU/mL to 100,000 CFU/mL))
- Grade ([3]; 1.25% (wt/vol), 3 day): 1 (0 to 51 colonies counted (thus 10 to 510 CFU/mL based on 0.1-mL sample))
- Grade ([3]; 1.25% (wt/vol), 14 day): 0
- Grade ([3]; 1.25% (wt/vol), 30 day): 0
- Grade ([3]; 2.5% (wt/vol), 3 day): 0
- Grade ([3]; 2.5% (wt/vol), 14 day): 0
- Grade ([3]; 2.5% (wt/vol), 30 day): 0
- Grade ([3]; 5.0% (wt/vol), 3 day): 0
- Grade ([3]; 5.0% (wt/vol), 14 day): 0
- Grade ([3]; 5.0% (wt/vol), 30 day): 0
- Grade ([4]; 0.5% (wt/vol), 3 day): 4 (1000 to 10,000 colonies countable (thus 10,000 CFU/mL to 100,000 CFU/mL))
- Grade ([4]; 0.5% (wt/vol), 13 day): 4 (1000 to 10,000 colonies countable (thus 10,000 CFU/mL to 100,000 CFU/mL))
- Grade ([4]; 0.5% (wt/vol), 30 day): 4 (1000 to 10,000 colonies countable (thus 10,000 CFU/mL to 100,000 CFU/mL))
- Grade ([4]; 1.25% (wt/vol), 3 day): 2.7
- Grade ([4]; 1.25% (wt/vol), 13 day): 1 (0 to 51 colonies counted (thus 10 to 510 CFU/mL based on 0.1-mL sample))
- Grade ([4]; 1.25% (wt/vol), 30 day): 3 (100 to 1000 colonies (thus 1000 to 10,000 CFU/mL))
- Grade ([4]; 2.5% (wt/vol), 3 day): 1 (0 to 51 colonies counted (thus 10 to 510 CFU/mL based on 0.1-mL sample))
- Grade ([4]; 2.5% (wt/vol), 13 day): 0
- Grade ([4]; 2.5% (wt/vol), 30 day): 0
- Grade ([4]; 5.0% (wt/vol), 3 day): 0
- Grade ([4]; 5.0% (wt/vol), 13 day): 0
- Grade ([4]; 5.0% (wt/vol), 30 day): 0
- S. epidermidis growth grade, 3 day ([5]; 0.5% weight/volume): 4 (1000 to 10,000 colonies countable (thus 10,000 CFU/mL to 100,000 CFU/mL))
- S. epidermidis growth grade, 13 day ([5]; 0.5% weight/volume): 3 (100 to 1000 colonies (thus 1000 to 10,000 CFU/mL))
- S. epidermidis growth grade, 30 day ([5]; 0.5% weight/volume): 4 (1000 to 10,000 colonies countable (thus 10,000 CFU/mL to 100,000 CFU/mL))
- S. epidermidis growth grade, 3 day ([5]; 1.25% weight/volume): 2.3
- S. epidermidis growth grade, 13 day ([5]; 1.25% weight/volume): 1 (0 to 51 colonies counted (thus 10 to 510 CFU/mL based on 0.1-mL sample))
- S. epidermidis growth grade, 30 day ([5]; 1.25% weight/volume): 3 (100 to 1000 colonies (thus 1000 to 10,000 CFU/mL))
- S. epidermidis growth grade, 3 day ([5]; 2.5% weight/volume): 0
- S. epidermidis growth grade, 13 day ([5]; 2.5% weight/volume): 0
- S. epidermidis growth grade, 30 day ([5]; 2.5% weight/volume): 0
- S. epidermidis growth grade, 3 day ([5]; 5.0% weight/volume): 0
- S. epidermidis growth grade, 13 day ([5]; 5.0% weight/volume): 0
- S. epidermidis growth grade, 30 day ([5]; 5.0% weight/volume): 0
- Aeromonas sp growth grade, 3 day ([6]; 0.5% weight/volume): 5 (More than 10,000 colonies estimated (thus more than 100,000 CFU/mL))
- Aeromonas sp growth grade, 14 day ([6]; 0.5% weight/volume): 4 (1000 to 10,000 colonies countable (thus 10,000 CFU/mL to 100,000 CFU/mL))
- Aeromonas sp growth grade, 30 day ([6]; 0.5% weight/volume): 4 (1000 to 10,000 colonies countable (thus 10,000 CFU/mL to 100,000 CFU/mL))
- Aeromonas sp growth grade, 3 day ([6]; 1.25% weight/volume): 3 (100 to 1000 colonies (thus 1000 to 10,000 CFU/mL))
- Aeromonas sp growth grade, 14 day ([6]; 1.25% weight/volume): 2 (52 to 100 colonies counted (thus 520 to 1000 CFU/mL))
- Aeromonas sp growth grade, 30 day ([6]; 1.25% weight/volume): 1 (0 to 51 colonies counted (thus 10 to 510 CFU/mL based on 0.1-mL sample))
- Aeromonas sp growth grade, 3 day ([6]; 2.5% weight/volume): 0
- Aeromonas sp growth grade, 14 day ([6]; 2.5% weight/volume): 1 (0 to 51 colonies counted (thus 10 to 510 CFU/mL based on 0.1-mL sample))
- Aeromonas sp growth grade, 30 day ([6]; 2.5% weight/volume): 0
- Aeromonas sp growth grade, 3 day ([6]; 5.0% weight/volume): 0
- Aeromonas sp growth grade, 14 day ([6]; 5.0% weight/volume): 0
- Aeromonas sp growth grade, 30 day ([6]; 5.0% weight/volume): 0
- Grade ([7]; 0.5% (wt/vol), 3 day): 4 (1000 to 10,000 colonies countable (thus 10,000 CFU/mL to 100,000 CFU/mL))
- Grade ([7]; 0.5% (wt/vol), 14 day): 4 (1000 to 10,000 colonies countable (thus 10,000 CFU/mL to 100,000 CFU/mL))
- Grade ([7]; 0.5% (wt/vol), 30 day): 4 (1000 to 10,000 colonies countable (thus 10,000 CFU/mL to 100,000 CFU/mL))
- Grade ([7]; 1.25% (wt/vol), 3 day): 3.3
- Grade ([7]; 1.25% (wt/vol), 14 day): 2.7
- Grade ([7]; 1.25% (wt/vol), 30 day): 4 (1000 to 10,000 colonies countable (thus 10,000 CFU/mL to 100,000 CFU/mL))
- Grade ([7]; 2.5% (wt/vol), 3 day): 0
- Grade ([7]; 2.5% (wt/vol), 14 day): 0
- Grade ([7]; 2.5% (wt/vol), 30 day): 0
- Grade ([7]; 5.0% (wt/vol), 3 day): 0
- Grade ([7]; 5.0% (wt/vol), 14 day): 0
- Grade ([7]; 5.0% (wt/vol), 30 day): 0
